Results reported in ChEMBL document CHEMBL5465560, “Selectivity Literature for EUbOPEN Chemogenomic Library” (2024).
Each block holds one compound with its values, some of them ahead of it.

What was measured:
[1] = biological target: Casein kinase I isoform epsilon (Homo sapiens, UniProt P49674); experiment: Selectivity interaction (SelectScreen profiling (Invitrogen)) EUB0000607a CSNK1E; details: at 2 µM
[2] = biological target: Insulin-like growth factor 1 receptor (Homo sapiens, UniProt P08069); experiment: Selectivity interaction (KinomeScan (DiscoverX)) EUB0000607a IGF1R; details: at 10 µM
[3] = biological target: Serine/threonine-protein kinase Chk2 (Homo sapiens) (UniProt O96017); experiment: Selectivity interaction (ActivX KiNativ screen (kinase selectivity in THP-1 cell lysates)) EUB0000639a CHEK2; type: subcellular; details: lysate, at 0.2 µM
[4] = biological target: Tyrosine-protein kinase JAK2 (Homo sapiens, UniProt O60674); experiment: Selectivity interaction (SelectScreen Kinase Profiling (Thermo Fisher Scientific)) EUB0001558a JAK2; details: at 1 µM
[5] = biological target: T1, Dual specificity mitogen-activated protein kinase kinase 4 (Homo sapiens) (UniProt P45985); experiment: Selectivity interaction (KinomeScan (DiscoverX)) EUB0000655a MAP2K4; details: at 10 µM
T1 sequence (whole entry): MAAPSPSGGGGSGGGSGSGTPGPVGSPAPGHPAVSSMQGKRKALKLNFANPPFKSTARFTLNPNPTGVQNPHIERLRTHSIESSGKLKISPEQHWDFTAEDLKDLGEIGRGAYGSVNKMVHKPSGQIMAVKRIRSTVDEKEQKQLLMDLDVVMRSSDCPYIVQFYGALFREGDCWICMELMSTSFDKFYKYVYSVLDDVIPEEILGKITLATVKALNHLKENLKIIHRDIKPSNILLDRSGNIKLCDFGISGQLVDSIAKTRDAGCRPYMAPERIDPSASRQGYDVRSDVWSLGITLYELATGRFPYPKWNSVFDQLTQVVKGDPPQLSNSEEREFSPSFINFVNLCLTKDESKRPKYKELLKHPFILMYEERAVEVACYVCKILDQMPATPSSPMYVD

[6] = biological target: T2, Serine/threonine-protein kinase Nek9 (Homo sapiens) (UniProt Q8TD19); experiment: Selectivity interaction (KinomeScan (DiscoverX)) EUB0000045b NEK9
T2 sequence (whole entry): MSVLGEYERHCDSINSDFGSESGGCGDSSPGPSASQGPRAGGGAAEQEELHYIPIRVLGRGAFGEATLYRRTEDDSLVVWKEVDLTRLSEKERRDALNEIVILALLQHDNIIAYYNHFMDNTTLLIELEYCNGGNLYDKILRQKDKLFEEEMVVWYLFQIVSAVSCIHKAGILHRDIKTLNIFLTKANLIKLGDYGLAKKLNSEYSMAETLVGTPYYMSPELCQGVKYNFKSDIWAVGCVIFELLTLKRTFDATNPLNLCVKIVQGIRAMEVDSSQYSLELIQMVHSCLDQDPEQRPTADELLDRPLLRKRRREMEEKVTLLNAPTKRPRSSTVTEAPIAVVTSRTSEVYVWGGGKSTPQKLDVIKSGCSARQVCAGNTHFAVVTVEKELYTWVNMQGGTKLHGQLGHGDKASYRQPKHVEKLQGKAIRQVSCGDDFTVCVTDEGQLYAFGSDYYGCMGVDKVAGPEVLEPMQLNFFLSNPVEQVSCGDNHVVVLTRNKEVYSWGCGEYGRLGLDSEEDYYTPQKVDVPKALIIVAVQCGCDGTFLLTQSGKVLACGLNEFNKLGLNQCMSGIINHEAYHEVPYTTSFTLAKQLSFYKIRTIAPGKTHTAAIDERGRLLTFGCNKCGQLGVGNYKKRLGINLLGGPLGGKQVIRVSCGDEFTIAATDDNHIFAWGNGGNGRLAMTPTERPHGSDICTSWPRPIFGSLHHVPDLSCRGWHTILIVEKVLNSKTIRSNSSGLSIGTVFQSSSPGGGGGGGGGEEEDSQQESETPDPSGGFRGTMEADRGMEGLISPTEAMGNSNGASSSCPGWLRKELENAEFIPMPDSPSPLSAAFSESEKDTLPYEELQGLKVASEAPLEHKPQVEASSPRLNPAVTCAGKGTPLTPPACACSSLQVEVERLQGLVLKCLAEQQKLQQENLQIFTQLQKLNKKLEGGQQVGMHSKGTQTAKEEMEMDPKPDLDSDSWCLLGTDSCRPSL

[7] = biological target: T3, Serine/threonine-protein kinase RIO3 (Homo sapiens) (UniProt O14730); details: at 10 µM
T3 sequence (whole entry): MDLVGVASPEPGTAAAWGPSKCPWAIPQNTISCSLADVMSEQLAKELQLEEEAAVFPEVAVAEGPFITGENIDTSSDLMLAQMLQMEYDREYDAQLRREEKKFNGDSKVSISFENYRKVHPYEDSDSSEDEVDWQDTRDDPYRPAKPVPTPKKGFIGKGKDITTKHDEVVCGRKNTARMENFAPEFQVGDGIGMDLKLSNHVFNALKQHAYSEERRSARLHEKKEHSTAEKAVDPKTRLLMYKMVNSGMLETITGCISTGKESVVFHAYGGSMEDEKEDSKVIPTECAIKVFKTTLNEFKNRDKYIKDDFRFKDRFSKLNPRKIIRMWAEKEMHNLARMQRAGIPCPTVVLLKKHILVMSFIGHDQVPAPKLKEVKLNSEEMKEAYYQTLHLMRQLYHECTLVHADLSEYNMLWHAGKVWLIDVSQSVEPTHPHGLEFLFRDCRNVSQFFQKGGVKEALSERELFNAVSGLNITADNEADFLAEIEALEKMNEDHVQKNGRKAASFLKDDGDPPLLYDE

Chain of Insulin-like growth factor 1 receptor (P08069 31-736 limits assumed): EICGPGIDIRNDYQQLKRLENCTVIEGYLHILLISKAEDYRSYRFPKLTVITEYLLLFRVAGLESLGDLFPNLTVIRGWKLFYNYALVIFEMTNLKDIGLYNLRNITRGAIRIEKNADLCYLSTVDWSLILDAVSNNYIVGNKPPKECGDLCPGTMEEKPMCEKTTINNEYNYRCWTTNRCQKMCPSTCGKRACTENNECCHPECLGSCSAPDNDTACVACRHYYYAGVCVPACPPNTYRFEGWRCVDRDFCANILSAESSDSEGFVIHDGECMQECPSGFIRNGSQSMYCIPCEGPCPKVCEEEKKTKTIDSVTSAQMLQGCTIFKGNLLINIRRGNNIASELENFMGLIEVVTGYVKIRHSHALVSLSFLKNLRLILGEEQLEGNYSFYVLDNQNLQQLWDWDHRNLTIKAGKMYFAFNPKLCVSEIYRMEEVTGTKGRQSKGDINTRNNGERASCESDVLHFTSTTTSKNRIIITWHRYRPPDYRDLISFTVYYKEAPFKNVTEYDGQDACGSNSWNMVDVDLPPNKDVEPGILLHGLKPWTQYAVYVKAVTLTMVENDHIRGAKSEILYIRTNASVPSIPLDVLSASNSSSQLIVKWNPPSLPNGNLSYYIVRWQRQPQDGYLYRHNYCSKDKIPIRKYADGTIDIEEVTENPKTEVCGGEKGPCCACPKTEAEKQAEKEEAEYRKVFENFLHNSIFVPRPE
Chain of Insulin-like growth factor 1 receptor (P08069 741-1367 limits assumed): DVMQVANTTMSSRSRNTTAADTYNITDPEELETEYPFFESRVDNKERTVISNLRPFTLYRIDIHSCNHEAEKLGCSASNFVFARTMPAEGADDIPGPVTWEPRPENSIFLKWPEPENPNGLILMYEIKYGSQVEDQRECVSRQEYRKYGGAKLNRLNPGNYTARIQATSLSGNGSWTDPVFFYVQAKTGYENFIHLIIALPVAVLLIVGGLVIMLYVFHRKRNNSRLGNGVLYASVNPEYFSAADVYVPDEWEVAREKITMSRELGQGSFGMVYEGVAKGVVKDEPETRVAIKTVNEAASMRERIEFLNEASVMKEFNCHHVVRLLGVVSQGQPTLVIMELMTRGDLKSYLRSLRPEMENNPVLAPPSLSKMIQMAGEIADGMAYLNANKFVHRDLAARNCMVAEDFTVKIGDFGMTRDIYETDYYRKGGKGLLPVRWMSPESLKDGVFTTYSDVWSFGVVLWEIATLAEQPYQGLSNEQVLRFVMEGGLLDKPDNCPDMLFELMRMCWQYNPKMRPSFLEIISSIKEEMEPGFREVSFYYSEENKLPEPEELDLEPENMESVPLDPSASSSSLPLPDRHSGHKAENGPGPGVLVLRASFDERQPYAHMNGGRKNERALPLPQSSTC
Chain of Tyrosine-protein kinase JAK2 (O60674 whole entry): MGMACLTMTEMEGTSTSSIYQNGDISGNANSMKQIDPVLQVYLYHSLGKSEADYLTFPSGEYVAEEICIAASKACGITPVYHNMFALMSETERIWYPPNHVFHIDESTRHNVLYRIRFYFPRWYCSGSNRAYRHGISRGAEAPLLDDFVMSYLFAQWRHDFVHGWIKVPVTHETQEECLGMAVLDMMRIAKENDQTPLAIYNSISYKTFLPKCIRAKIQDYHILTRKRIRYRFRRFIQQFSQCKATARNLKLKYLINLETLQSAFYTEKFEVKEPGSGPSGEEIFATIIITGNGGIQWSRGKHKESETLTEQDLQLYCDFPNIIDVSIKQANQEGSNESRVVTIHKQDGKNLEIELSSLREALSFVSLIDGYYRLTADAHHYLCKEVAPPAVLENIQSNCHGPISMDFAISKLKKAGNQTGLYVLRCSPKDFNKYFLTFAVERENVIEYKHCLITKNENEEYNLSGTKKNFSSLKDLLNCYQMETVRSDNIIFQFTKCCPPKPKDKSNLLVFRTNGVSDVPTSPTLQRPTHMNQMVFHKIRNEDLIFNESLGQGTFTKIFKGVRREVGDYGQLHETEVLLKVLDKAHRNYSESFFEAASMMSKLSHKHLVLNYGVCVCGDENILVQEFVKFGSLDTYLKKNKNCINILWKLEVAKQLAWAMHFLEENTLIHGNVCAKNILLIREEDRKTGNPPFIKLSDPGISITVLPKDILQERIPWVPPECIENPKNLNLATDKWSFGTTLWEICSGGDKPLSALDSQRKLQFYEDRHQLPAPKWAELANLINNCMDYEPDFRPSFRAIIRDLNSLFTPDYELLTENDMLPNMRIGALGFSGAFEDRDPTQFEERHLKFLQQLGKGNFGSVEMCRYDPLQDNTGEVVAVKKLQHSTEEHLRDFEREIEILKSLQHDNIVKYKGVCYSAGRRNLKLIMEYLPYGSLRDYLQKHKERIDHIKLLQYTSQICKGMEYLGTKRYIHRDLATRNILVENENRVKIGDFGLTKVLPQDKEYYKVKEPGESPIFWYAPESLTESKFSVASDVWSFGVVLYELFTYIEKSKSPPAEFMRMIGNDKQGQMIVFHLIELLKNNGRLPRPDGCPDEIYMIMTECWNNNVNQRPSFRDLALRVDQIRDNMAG
Chain of Casein kinase I isoform epsilon (P49674 whole entry, looked up, canonical isoform): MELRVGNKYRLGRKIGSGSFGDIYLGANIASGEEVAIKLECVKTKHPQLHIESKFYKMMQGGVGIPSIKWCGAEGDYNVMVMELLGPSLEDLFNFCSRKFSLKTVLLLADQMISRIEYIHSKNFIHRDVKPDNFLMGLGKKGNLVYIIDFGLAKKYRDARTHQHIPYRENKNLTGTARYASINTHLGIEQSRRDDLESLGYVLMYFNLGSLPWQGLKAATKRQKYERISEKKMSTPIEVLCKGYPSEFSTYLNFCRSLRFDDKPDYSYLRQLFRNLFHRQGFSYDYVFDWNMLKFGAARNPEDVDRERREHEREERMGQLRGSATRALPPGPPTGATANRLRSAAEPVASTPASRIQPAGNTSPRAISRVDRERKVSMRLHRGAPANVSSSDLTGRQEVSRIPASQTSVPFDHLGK
Chain of Serine/threonine-protein kinase Chk2 (Homo sapiens) (O96017 whole entry): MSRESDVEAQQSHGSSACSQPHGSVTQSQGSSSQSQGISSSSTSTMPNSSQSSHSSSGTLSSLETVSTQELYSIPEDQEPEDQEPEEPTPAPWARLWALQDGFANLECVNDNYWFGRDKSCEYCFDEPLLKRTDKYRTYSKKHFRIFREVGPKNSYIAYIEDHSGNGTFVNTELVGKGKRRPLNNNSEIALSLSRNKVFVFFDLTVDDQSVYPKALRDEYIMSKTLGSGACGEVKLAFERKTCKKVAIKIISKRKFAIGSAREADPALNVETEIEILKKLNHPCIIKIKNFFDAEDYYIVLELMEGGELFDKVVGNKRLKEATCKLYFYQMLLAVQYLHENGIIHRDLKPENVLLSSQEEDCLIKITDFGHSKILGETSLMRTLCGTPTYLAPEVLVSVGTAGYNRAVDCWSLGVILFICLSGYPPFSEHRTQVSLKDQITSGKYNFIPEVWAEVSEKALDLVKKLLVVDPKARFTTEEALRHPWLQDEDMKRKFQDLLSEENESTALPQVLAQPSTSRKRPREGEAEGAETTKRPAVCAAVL

SMILES: CNC(=O)Nc1ccc(-c2nc(N3CC4CCC(C3)O4)c3cnn(C4CCC5(CC4)OCCO5)c3n2)cc1
% of inhibition [1]: 4% | % of control [2]: 93%

% of inhibition [3]: -0.3%
SMILES: CC[C@@H]1[C@H](F)C(=O)N[C@@H]1COc1nccc2cc(C(N)=O)c(OC)cc12 [ZIMLOVISERTIB]

SMILES: CC(C)(O)[C@H](F)CN1Cc2cc(NC(=O)c3cnn4cccnc34)c(N3CCOCC3)cc2C1=O
% of inhibition [4]: 80.5%

SMILES: CN(C)CCOc1ccc(-c2nc(-c3ccncc3)c(-c3ccc4c(c3)CC/C4=N\O)[nH]2)cc1
% of control [5]: 100%

SMILES: C=CC(=O)Nc1cc(-n2c(=O)ccc3cnc4ccc(-c5ccc(NS(C)(=O)=O)cc5)cc4c32)ccc1C
% of control ([6]; at 1 µM): 100% | % of control ([6]; at 10 µM): 65%

SMILES: Cc1cc([C@@H](C)Nc2ccccc2C(=O)O)c2nc(N3CCOCC3)cc(=O)n2c1 [AZD-6482]
% of control [7]: 100%
